Assay in all cases: combination Emax (second highest fraction inhibited in the dose matrix, 72 h); higher = more inhibition; extreme values may be limits of the assay
In test [1] the test system is COLO-668 (Small Cell Lung Carcinoma). An outline of the steps: (§1)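 Cell lines grown in DMEM/F12 or RPMI with 10% FBS were plated in 1536-well plates and held 24 hours at 37°C, 5% CO2 before 72 hours of exposure to two-drug dose matrices, with DMSO typically at 0.2%. CellTiter-Glo 2.0 luminescence gave viability, which was converted to inhibition. Vehicle wells were set to 0 and blank wells to 1. Combination Emax is the second-highest inhibition in the matrix, and Bliss excess is the observed combination effect minus the expected EA + EB − EA·EB, where EA and EB are the single-agent effects.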

The test system of the next test is COLO-679 (Melanoma). The method in brief: as §1
Test [2] concerns EFO-21 (Ovarian Carcinoma). The method in brief: as §1
Test [3] has as its system HAL-01 (B-Lymphoblastic Leukemia). An outline of the steps:
as §1

Test [4] has as its system KGN (Other Solid Carcinomas). The method in brief: as §1
The subject of test [5] is KMRC-1 (Kidney Carcinoma). The method in brief:
as §1

Test [6] has as its system MDA-MB-453 (Breast Carcinoma). The method in brief: as §1
The subject of test [7] is MOG-G-UVW (Low Grade Glioma). The method in brief: as §1
Test [8] has as its system MOLT-4 (T-Lymphoblastic Leukemia). The method in brief:
as §1

Test [9] relates to NCI-H1355 (Lung Adenocarcinoma). An outline of the steps: as §1
For test [10], the system named is NCI-H1993 (Lung Adenocarcinoma). An outline of the steps:
as §1

In test [11] the test system is OE33 (Esophageal Adenocarcinoma). The method in brief: as §1
In test [12] the test system is SK-LU-1 (Lung Adenocarcinoma). The method in brief:
as §1

Test [13] concerns SKN (Other Solid Carcinomas). The method in brief: as §1
Test [14] has as its system SNU-387 (Hepatocellular Carcinoma). An outline of the steps:
as §1

For the molecule `C[C@@H]1COCCN1c1cc(C2([S@](C)(=N)=O)CC2)nc(-c2ccnc3[nH]ccc23)n1` [AZD6738] + Nc1ccn([C@@H]2O[C@H](CO)[C@@H](O)C2(F)F)c(=O)n1 [Gemcitabine] (first compound max 10 µM, 7x7, partner max 0.3 µM), the “combination Emax” value in test [1] was found to be 0.854; with COLO-679 (Melanoma), 0.82; in test [2] it was 0.625; in [3] it was 1; in test [4], 0.969; in [5], 0.801. For the same molecule, the “combination Emax” value came out at 0.678 in test [6]; 0.967 in test [7]; 1 in test [8]; 0.722 in test [9]; 0.939 in test [10]; 0.752 in [11]. The “combination Emax” value is 0.415 in test [12], 0.71 in test [13] and 0.718 in test [14].

Turning to `C[C@@H](Nc1cc(F)cc(F)c1)c1cc(C(=O)N(C)C)cc2c(=O)cc(N3CCOCC3)oc12` [AZD8186] + C1CN(CCC1(C(=O)N[C@@H](CCO)C2=CC=C(C=C2)Cl)N)C3=NC=NC4=C3C=CN4 [AZD5363] (first compound max 10 µM, 7x7, partner max 10 µM), the “combination Emax” value in test [1] worked out at 0.327; with COLO-679 (Melanoma) it was 0.273; in test [2], 0.235; in test [3], 0.623; in [4] it was 0.556; in test [5] it was 0.618. The “combination Emax” value in [6] was 0.573; in [7], 0.621; in [8], 0.437; in test [9] it was 0.395; in test [10] it was 0.636; in test [11], 0.332. Also, the “combination Emax” value in test [12] came out at 0.303; in [13], 0.557; in test [14], 0.472.

Take `C[C@@H](Nc1cc(F)cc(F)c1)c1cc(C(=O)N(C)C)cc2c(=O)cc(N3CCOCC3)oc12` [AZD8186] + CC(=O)c1c(C)c2cnc(Nc3ccc(N4CCNCC4)cn3)nc2n(C2CCCC2)c1=O [Palbociclib] (first compound max 10 µM, 7x7, partner max 10 µM): the “combination Emax” value in [1] is 0.378; in the test on COLO-679 (Melanoma), 0.269; in [2], 0.325; in test [3], 0.793; in test [4], 0.798; in [5], 0.566. Further, the “combination Emax” value was 0.578 in test [6]; 0.718 in test [7]; 0.661 in test [8]; 0.425 in test [9]; 0.578 in test [10]; 0.477 in test [11]. Also, the “combination Emax” value in test [12] came out at 0.434; in test [13] it was 0.665; in test [14] it was 0.614.

Turning to `C[C@@H](Oc1cc(-c2cnn(C3CCNCC3)c2)cnc1N)c1c(Cl)ccc(F)c1Cl` [Crizotinib] + CC1=C(C(=CC=C1)Cl)NC(=O)C2=CN=C(S2)NC3=CC(=NC(=N3)C)N4CCN(CC4)CCO [Dasatinib] (first compound max 10 µM, 7x7, partner max 2 µM), the “combination Emax” value in test [1] was found to be 0.415; in the test with COLO-679 (Melanoma) it was 0.297; in [2], 0.701; in test [3] it was 0.961; in test [4], 0.978; in [5], 0.815. For the same molecule, the “combination Emax” value came to 0.214 in test [6]; 0.928 in test [7]; 0.826 in [8]; 0.289 in test [9]; 0.811 in test [10]; 0.853 in test [11]. For the same molecule, the results for the “combination Emax” value in test [12], in test [13] and in test [14] were 0.479, 0.866 and 0.743, respectively.

The values are drawn from the supplement of paper PMC11061612.
